Measured values: the NIST ThermoML archive (doi:10.1016/j.fluid.2012.06.013)

Columns and labels:
[1] = Liquid; for mass density: 298.15 K, Vibrating tube method
[2] = refractive index (Na D-line) (dimensionless); conditions: 298.15 K; 101.33 kPa; Liquid; Standard Abbe refractometry
[3] = xn = mol fraction of the nth substance listed; conditions: 298.15 K, 101 kPa, Liquid, Vibrating tube method

CC(=O)OCC(C)C [2-methylpropyl ethanoate]
[1]
Conditions	Normal boiling temperature [°C]	mass density [kg/m3]
101.33 kPa	–	866.2
Ebulliometric method (Recirculating still)	116.29	–

Conditions	vapor or sublimation pressure [kPa]
[1], 461.03 K, Ebulliometric method (Recirculating still)	600

Conditions	refractive index
[2]	1.3882

CC(=O)OCC(C)C [2-methylpropyl ethanoate] + CC(C)O
[3]
Conditions	mass density [kg/m3]
x1 = 0.051	787.4
x1 = 0.126	796.2
x1 = 0.204	804.7
x1 = 0.235	807.9
x1 = 0.352	819.1
x1 = 0.407	824
x1 = 0.501	831.8
x1 = 0.549	835.6
x1 = 0.677	845.1
x1 = 0.752	850.3
x1 = 0.799	853.5
x1 = 0.868	857.9
x1 = 0.949	863.1
x1 = 1	866.2

CC(=O)OCC(C)C [2-methylpropyl ethanoate] + CCCO
[3]
Conditions	mass density [kg/m3]
x1 = 0.053	805.4
x1 = 0.092	809.3
x1 = 0.145	814.5
x1 = 0.196	819.1
x1 = 0.249	823.5
x1 = 0.302	827.6
x1 = 0.346	830.9
x1 = 0.444	837.6
x1 = 0.482	840
x1 = 0.508	841.6
x1 = 0.565	845
x1 = 0.613	847.7
x1 = 0.719	853.3
x1 = 0.751	854.9
x1 = 0.804	857.5
x1 = 0.854	859.8
x1 = 0.889	861.4
x1 = 0.909	862.3
x1 = 0.953	864.2
x1 = 1	866.2

CC(=O)OCC(C)C [2-methylpropyl ethanoate] + CCO
[3]
Conditions	mass density [kg/m3]
x1 = 0.09	799.8
x1 = 0.153	808.3
x1 = 0.22	816.2
x1 = 0.277	822.2
x1 = 0.349	828.9
x1 = 0.44	836.3
x1 = 0.563	844.8
x1 = 0.657	850.4
x1 = 0.742	854.9
x1 = 0.85	860
x1 = 0.898	862.1
x1 = 0.942	863.9
x1 = 1	866.2

CCO [ethanol]
Conditions	mass density [kg/m3]
[1], 101 kPa	785.2

Conditions	vapor or sublimation pressure [kPa]
[1], 405.53 K, Ebulliometric method (Recirculating still)	600

CCO [ethanol] + CC(=O)OCC(C)C
Conditions	mass density [kg/m3]
[3], x2 = 0	785.2

CCCO [propan-1-ol]
[1]
Conditions	Normal boiling temperature [°C]	mass density [kg/m3]
101.33 kPa	–	799.6
Ebulliometric method (Recirculating still)	97.29	–

[1]
Conditions	vapor or sublimation pressure [kPa]
313.98 K, Closed cell (Static) method	8
325.46 K, Closed cell (Static) method	14
331.28 K, Closed cell (Static) method	18
335.02 K, Closed cell (Static) method	22
339.49 K, Closed cell (Static) method	28
343.81 K, Closed cell (Static) method	34
347.33 K, Closed cell (Static) method	40
351.55 K, Closed cell (Static) method	48
353.46 K, Closed cell (Static) method	52
356.16 K, Closed cell (Static) method	58
359.07 K, Closed cell (Static) method	66
361.64 K, Closed cell (Static) method	72
363.69 K, Closed cell (Static) method	78
366.43 K, Closed cell (Static) method	88
367.86 K, Closed cell (Static) method	92
372.66 K, Closed cell (Static) method	110
374.63 K, Closed cell (Static) method	118
376.34 K, Closed cell (Static) method	126
378.84 K, Closed cell (Static) method	138
380.75 K, Closed cell (Static) method	148
382.61 K, Closed cell (Static) method	158
384.08 K, Closed cell (Static) method	166
385.46 K, Closed cell (Static) method	174
386.6 K, Closed cell (Static) method	182
387.29 K, Closed cell (Static) method	186
389.05 K, Closed cell (Static) method	198
390.26 K, Closed cell (Static) method	206
391.39 K, Closed cell (Static) method	214
393.67 K, Closed cell (Static) method	230
398.52 K, Closed cell (Static) method	260
406.65 K, Closed cell (Static) method	340
410.69 K, Closed cell (Static) method	382
414.02 K, Closed cell (Static) method	420
417.3 K, Closed cell (Static) method	460
418.84 K, Closed cell (Static) method	475
421.54 K, Closed cell (Static) method	512
423.55 K, Closed cell (Static) method	545
427.2 K, Ebulliometric method (Recirculating still)	600
427.98 K, Closed cell (Static) method	612
430.49 K, Closed cell (Static) method	655
432.23 K, Closed cell (Static) method	685
434.42 K, Closed cell (Static) method	722
436.33 K, Closed cell (Static) method	755
439.88 K, Closed cell (Static) method	825
441.78 K, Closed cell (Static) method	865
443 K, Closed cell (Static) method	890
444.97 K, Closed cell (Static) method	935
448.1 K, Closed cell (Static) method	1007
449.6 K, Closed cell (Static) method	1043
452.29 K, Closed cell (Static) method	1112
453.22 K, Closed cell (Static) method	1135
454.7 K, Closed cell (Static) method	1175
456 K, Closed cell (Static) method	1210
457.19 K, Closed cell (Static) method	1245
458.54 K, Closed cell (Static) method	1282
459.71 K, Closed cell (Static) method	1317
460.87 K, Closed cell (Static) method	1352
461.97 K, Closed cell (Static) method	1387
463.21 K, Closed cell (Static) method	1425
464.18 K, Closed cell (Static) method	1455
465.41 K, Closed cell (Static) method	1495
466.65 K, Closed cell (Static) method	1535
467.43 K, Closed cell (Static) method	1562
468.64 K, Closed cell (Static) method	1602
469.46 K, Closed cell (Static) method	1630

Conditions	refractive index
[2]	1.3837

CCCO [propan-1-ol] + CC(=O)OCC(C)C
Conditions	mass density [kg/m3]
[3], x2 = 0	799.6

CC(C)O [propan-2-ol]
[1]
Conditions	Normal boiling temperature [°C]	mass density [kg/m3]
101.33 kPa	–	781.3
Ebulliometric method (Recirculating still)	82.38	–

Conditions	vapor or sublimation pressure [kPa]
[1], 410.08 K, Ebulliometric method (Recirculating still)	600

Conditions	refractive index
[2]	1.3751

CC(C)O [propan-2-ol] + CC(=O)OCC(C)C
Conditions	mass density [kg/m3]
[3], x2 = 0	781.3
